US8614327B2 (Vertex Pharmaceuticals Incorporated, priority 2004, dated 2013)

Molecular target: T1, ΔF508-CFTR (Homo sapiens, UniProt P13569, DEL508-508)
T1 construct: expressed in transfected cells
Experiment: Membrane potential optical (FRET/VIPR) assay, identification of potentiator compounds
Format: cell-based
Conditions: Table 3, assay not given; for % Activity: relative efficacy
Procedure, shortened: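 Double-addition potentiator screen: compound delivered in gluconate-substituted Cl^--free medium, membrane potential followed via CC2-DMPE/DiSBAC2(3) FRET on VIPR. Cells were ΔF508-CFTR-expressing NIH3T3 mouse fibroblasts, held 2 h at 37° C. then 24 h at 27° C. before assay.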

T1 sequence (P13569 with tags, fused parts or gaps DEL508-508): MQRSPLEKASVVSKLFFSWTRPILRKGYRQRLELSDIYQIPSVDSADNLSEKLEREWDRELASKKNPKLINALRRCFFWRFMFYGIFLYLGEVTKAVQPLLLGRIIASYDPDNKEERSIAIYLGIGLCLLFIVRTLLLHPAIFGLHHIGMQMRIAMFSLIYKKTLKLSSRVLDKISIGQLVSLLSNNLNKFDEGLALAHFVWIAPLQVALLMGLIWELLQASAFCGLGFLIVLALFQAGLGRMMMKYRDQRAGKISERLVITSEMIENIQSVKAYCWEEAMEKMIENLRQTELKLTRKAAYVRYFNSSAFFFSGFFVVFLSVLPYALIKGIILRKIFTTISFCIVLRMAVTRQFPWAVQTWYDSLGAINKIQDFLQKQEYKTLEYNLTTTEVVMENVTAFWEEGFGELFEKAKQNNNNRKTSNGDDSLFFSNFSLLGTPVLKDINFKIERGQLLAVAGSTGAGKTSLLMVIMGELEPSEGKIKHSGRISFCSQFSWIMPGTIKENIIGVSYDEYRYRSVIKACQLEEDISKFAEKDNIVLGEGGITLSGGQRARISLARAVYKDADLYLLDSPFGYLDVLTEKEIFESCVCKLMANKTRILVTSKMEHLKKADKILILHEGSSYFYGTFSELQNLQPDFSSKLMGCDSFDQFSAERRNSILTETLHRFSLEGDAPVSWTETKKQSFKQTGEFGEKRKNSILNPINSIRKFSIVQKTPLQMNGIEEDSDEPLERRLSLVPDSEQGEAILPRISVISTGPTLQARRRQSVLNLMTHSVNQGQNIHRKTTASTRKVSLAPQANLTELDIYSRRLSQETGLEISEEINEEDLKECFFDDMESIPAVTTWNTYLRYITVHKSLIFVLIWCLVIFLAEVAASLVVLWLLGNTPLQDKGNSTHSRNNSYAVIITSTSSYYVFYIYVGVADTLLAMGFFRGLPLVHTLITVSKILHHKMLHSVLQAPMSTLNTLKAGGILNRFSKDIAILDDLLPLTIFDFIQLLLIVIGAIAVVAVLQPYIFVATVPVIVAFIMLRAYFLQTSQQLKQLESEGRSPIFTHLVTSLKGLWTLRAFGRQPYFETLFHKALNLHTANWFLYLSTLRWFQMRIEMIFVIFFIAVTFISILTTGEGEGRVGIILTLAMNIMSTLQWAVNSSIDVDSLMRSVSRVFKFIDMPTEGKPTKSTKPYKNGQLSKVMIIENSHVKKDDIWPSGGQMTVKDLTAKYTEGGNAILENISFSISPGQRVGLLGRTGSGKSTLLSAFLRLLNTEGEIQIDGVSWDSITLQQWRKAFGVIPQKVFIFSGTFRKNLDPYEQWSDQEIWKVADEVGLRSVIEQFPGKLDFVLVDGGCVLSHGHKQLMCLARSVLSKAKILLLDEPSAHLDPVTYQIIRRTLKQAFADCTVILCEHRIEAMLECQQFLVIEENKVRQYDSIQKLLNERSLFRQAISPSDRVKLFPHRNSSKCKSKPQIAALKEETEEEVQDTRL

Row | SMILES | EC50 | % Activity
1 | Cc1cccc(NC(=O)c2c[nH]c3ccccc3c2=O)c1C#N [Compound 201, N-(2-cyano-3-methyl-phenyl)-4-oxo-1H-quinoline-3-carboxamide] | 10 to 25 µM | + (<25%)
2 | CC(C)(C)c1ccccc1NC(=O)c1c[nH]c2ccccc2c1=O [Compound 90, 4-oxo-N-(2-tert-butylphenyl)-1H-quinoline-3-carboxamide] | < 10 µM | ++ (between 25% to 100%)
3 | O=C(Nc1ccccc1-c1cccc(F)c1F)c1c[nH]c2ccccc2c1=O [Compound 285, N-[2-(2,3-difluorophenyl)phenyl]-4-oxo-1H-quinoline-3-carboxamide] | < 10 µM | ++ (between 25% to 100%)
4 | O=C(Nc1cc(OCc2ccccc2)c(C2CCCCC2)cc1C(F)(F)F)c1c[nH]c2ccccc2c1=O [Compound 654, N-[5-benzyloxy-4-cyclohexyl-2-(trifluoromethyl)phenyl]-4-oxo-1H-quinoline-3-carboxamide] | < 10 µM | ++ (between 25% to 100%)
5 | O=C(Nc1ccc2nc[nH]c2c1)c1c[nH]c2ccccc2c1=O [Compound 414, N-(3H-benzoimidazol-5-yl)-4-oxo-1H-quinoline-3-carboxamide] | 25 to 60 µM | + (<25%)
6 | Cc1cc(C2C3CC4CC(C3)CC2C4)c(O)cc1NC(=O)c1c[nH]c2ccccc2c1=O (stereo not drawn) [Compound 208, N-[4-(2-adamantyl)-5-hydroxy-2-methyl-phenyl]-4-oxo-1H-quinoline-3-carboxamide] | < 10 µM | ++ (between 25% to 100%)
7 | O=C(Nc1ccc2c(c1)S(=O)(=O)C=C2)c1c[nH]c2ccccc2c1=O [Compound 446, N-(1,1-dioxobenzothiophen-6-yl)-4-oxo-1H-quinoline-3-carboxamide] | 25 to 60 µM | + (<25%)
8 | O=C(Nc1cccnc1Oc1ccc(F)cc1F)c1c[nH]c2ccccc2c1=O [Compound 385, N-[2-(2,4-difluorophenoxy)-3-pyridyl]-4-oxo-1H-quinoline-3-carboxamide] |  | ++ (between 25% to 100%)
9 | CC(C)(C)c1cc(C(F)(F)F)c(NC(=O)c2c[nH]c3ccccc3c2=O)cc1O [Compound 266, N-[5-hydroxy-4-tert-butyl-2-(trifluoromethyl)phenyl]-4-oxo-1H-quinoline-3-carboxamide] | < 10 µM | ++ (between 25% to 100%)
10 | O=C(Nc1ccc2cc[nH]c2c1)c1c(C(F)(F)F)[nH]c2ccccc2c1=O [Compound 184, N-(1H-indol-6-yl)-4-oxo-2-(trifluoromethyl)-1H-quinoline-3-carboxamide] | 25 to 60 µM | + (<25%)
11 | COc1ccc(C)cc1NC(=O)c1c[nH]c2ccccc2c1=O [Compound 120, N-(2-methoxy-5-methyl-phenyl)-4-oxo-1H-quinoline-3-carboxamide] | 10 to 25 µM | ++ (between 25% to 100%)
12 | CC(C)(C)c1ccc(NC(=O)c2c[nH]c3ccccc3c2=O)cc1N1CCCCC1 [Compound 510, 4-oxo-N-[3-(1-piperidyl)-4-tert-butyl-phenyl]-1H-quinoline-3-carboxamide] | < 10 µM | ++ (between 25% to 100%)
13 | O=C(Nc1ccccc1N1CCCC1)c1c[nH]c2ccccc2c1=O [Compound 295, 4-oxo-N-(2-pyrrolidin-1-ylphenyl)-1H-quinoline-3-carboxamide] | < 10 µM | ++ (between 25% to 100%)
14 | N#Cc1cccc(NC(=O)c2c[nH]c3ccccc3c2=O)c1 [Compound 447, N-(3-cyanophenyl)-4-oxo-1H-quinoline-3-carboxamide] | 10 to 25 µM | ++ (between 25% to 100%)
15 | O=C(Nc1cc2[nH]ccc2cc1-c1cccnc1)c1c[nH]c2ccccc2c1=O [Compound 65, 4-oxo-N-[5-(3-pyridyl)-1H-indol-6-yl]-1H-quinoline-3-carboxamide] | < 10 µM | ++ (between 25% to 100%)
16 | Cc1ccc2c(c1)c(=O)c(C(=O)Nc1ccccc1-c1ccccc1)cn2C [Compound 128, 1,6-dimethyl-4-oxo-N-(2-phenylphenyl)-1H-quinoline-3-carboxamide] | 25 to 60 µM | + (<25%)
17 | COc1ccc(OC)c(-c2ccccc2NC(=O)c2c[nH]c3ccccc3c2=O)c1 [Compound 361, N-[2-(2,5-dimethoxyphenyl)phenyl]-4-oxo-1H-quinoline-3-carboxamide] |  | +++ (>100%)
18 | COc1ccc2c(=O)c(C(=O)Nc3ccc(N4CCC[C@@H]4C)cc3C(F)(F)F)c[nH]c2c1 [Compound 642, (S)-7-methoxy-N-(4-(2-methylpyrrolidin-1-yl)-2-(trifluoromethyl)phenyl)-4-oxo-1,4-dihydroquinoline-3-carboxamide] | < 10 µM | ++ (between 25% to 100%)
19 | O=C(Nc1ccc2c(c1)OCO2)c1c[nH]c2ccccc2c1=O [Compound 437, N-benzo[1,3]dioxol-5-yl-4-oxo-1H-quinoline-3-carboxamide] | 25 to 60 µM | + (<25%)
20 | Cc1ccc2c(=O)c(C(=O)Nc3ccc(N4CCC[C@@H]4C)cc3C(F)(F)F)c[nH]c2c1 [Compound 607, (S)-7-methyl-N-(4-(2-methylpyrrolidin-1-yl)-2-(trifluoromethyl)phenyl)-4-oxo-1,4-dihydroquinoline-3-carboxamide] | < 10 µM | ++ (between 25% to 100%)
21 | COc1cccc(-c2ccccc2NC(=O)c2c[nH]c3ccccc3c2=O)c1 [Compound 283, N-[2-(3-methoxyphenyl)phenyl]-4-oxo-1H-quinoline-3-carboxamide] | < 10 µM | +++ (>100%)
22 | O=C(Nc1ccc(OC(F)(F)F)cc1)c1c[nH]c2ccccc2c1=O [Compound 176, 4-oxo-N-[4-(trifluoromethoxy)phenyl]-1H-quinoline-3-carboxamide] | < 10 µM | ++ (between 25% to 100%)
23 | CC(C)c1ccc(NC(=O)c2c[nH]c3ccccc3c2=O)c(C(F)(F)F)c1 [Compound 47, N-[4-isopropyl-2-(trifluoromethyl)phenyl]-4-oxo-1H-quinoline-3-carboxamide] | < 10 µM | ++ (between 25% to 100%)
24 | O=C(Nc1c(Cl)cccc1Cl)c1c[nH]c2ccccc2c1=O [Compound 317, N-(2,6-dichlorophenyl)-4-oxo-1H-quinoline-3-carboxamide] | < 10 µM | ++ (between 25% to 100%)
25 | O=C(Nc1cccnc1Oc1ccccc1F)c1c[nH]c2ccccc2c1=O [Compound 435, N-[2-(2-fluorophenoxy)-3-pyridyl]-4-oxo-1H-quinoline-3-carboxamide] | < 10 µM | ++ (between 25% to 100%)
